Experimental data taken from patent USRE29226E, “Preparation of carboxylate and sulfonate salts of 1-cis-(3-chloro-2-propenyl)-3,5,7-triaza-1-azoniatricyclo(3.3.1.1^3, 7)decane-II” (The Dow Chemical Company, priority 1976, dated 1977).
Where a name gives a salt, the structure may show the parent alone. Read-outs that look alike come from different tables or passages of the source.

How the values were obtained:
Type in all cases: cell-based
[1] = tested on: S. aureus; assay: conventional agar dilution test, S. aureus; settings: Sa = S. aureus, complete growth inhibition
Source text: (§1) In representative operations, the products of the invention when tested for antimicrobial activity using conventional agar dilution tests gave complete growth inhibition against the following organisms at the indicated concentrations in parts per million:
(§2) Minimum Inhibitory Concentration, ppm

[2] = tested on: S. typhosa; assay: conventional agar dilution test, S. typhosa; settings: St = S. typhosa, complete growth inhibition
Source text: as §1, §2

[3] = tested on: A. aerogenes; assay: conventional agar dilution test, A. aerogenes; settings: Aa = A. aerogenes, complete growth inhibition
Source text: as §1, §2

[4] = tested on: P. aeruginosa; assay: conventional agar dilution test, P. aeruginosa; settings: Pa = P. aeruginosa, complete growth inhibition; for MIC: Pseudomonas aeruginosa, read-out: Minimum Inhibitory Concentration
Source text: as §1, §2

[5] = tested on: C. pelliculosa; assay: conventional agar dilution test, C. pelliculosa; settings: Cp = C. pelliculosa
Source text: as §1, §2

[6] = tested on: S. cerevisiae; assay: conventional agar dilution test, S. cerevisiae; settings: Sc = S. cerevisiae; for MIC / Minimum Inhibitory Concentration: complete growth inhibition, agar dilution; for MIC: read-out: Minimum Inhibitory Concentration
Source text: as §1, §2

[7] = tested on: A. niger; assay: conventional agar dilution test, A. niger; settings: An = A. niger, complete growth inhibition; for MIC: Aspergillus niger, read-out: Minimum Inhibitory Concentration
Source text: as §1, §2

[8] = tested on: P. chrysogenum; assay: conventional agar dilution test, P. chrysogenum; settings: Pen = P. chrysogenum
Source text: as §1, §2

[9] = complete growth inhibition, agar dilution

SMILES | MIC ([1]; Staphylococcus aureus, read-out: Minimum Inhibitory Concentration) | MIC ([2]; read-out: Minimum Inhibitory Concentration) | MIC ([3]; Klebsiella aerogenes, read-out: Minimum Inhibitory Concentration) | MIC [4] | inhibition at 500 ppm [5] | MIC ([6]; Saccharomyces cerevisiae) | MIC [7] | MIC ([8]; Penicillium chrysogenum, complete growth inhibition, agar dilution, read-out: Minimum Inhibitory Concentration) | Minimum Inhibitory Concentration [1] | Minimum Inhibitory Concentration [2] | Minimum Inhibitory Concentration [3] | MIC ([5]; Hansenula anomala, complete growth inhibition, agar dilution, read-out: Minimum Inhibitory Concentration) | Minimum Inhibitory Concentration [8, 9] | Minimum Inhibitory Concentration [4] | inhibition at 500 ppm ([6]; Saccharomyces cerevisiae, read-out: inhibition at 500 ppm) | Minimum Inhibitory Concentration [7] | inhibition at 500 ppm [6] | Minimum Inhibitory Concentration [6] | Minimum Inhibitory Concentration [5, 9] | inhibition at 500 ppm ([8]; Penicillium chrysogenum, 500 ppm)
Cl/C=C\C[N+]12CN3CN(CN(C3)C1)C2.[Cl-] [Cis, cis-1-(3-chloro-2-propenyl)-3,5,7-triaza-1-azoniatricyclo(3.3.1.1^3,7)decane chloride, reference compound] | 50 µg/mL | 25 µg/mL | 50 µg/mL | 100 µg/mL | ± (50% inhibition at 500 ppm) | 250 µg/mL | > 500 µg/mL | 250 µg/mL | – | – | – | – | – | – | – | – | – | – | – | –
Cl/C=C\C[N+]12CN3CN(CN(C3)C1)C2 [Example 1, Mono-benzoate Salt of Cis] | – | – | – | 250 µg/mL | – | > 500 µg/mL | > 500 µg/mL | – | 100 ppm | 50 ppm | 100 ppm | > 500 µg/mL | 500 ppm | – | – | – | – | – | – | –
Cl/C=C\C[N+]12CN3CN(CN(C3)C1)C2 [Example 2, p-Toluene Sulfonate Mono-Salt of Cis] | – | – | – | – | ± (50% inhibition at 500 ppm) | – | – | – | 250 ppm | 50 ppm | 100 ppm | – | 500 ppm | 250 ppm | 50% | > 500 ppm | – | – | – | –
Cl/C=C\C[N+]12CN3CN(CN(C3)C1)C2 [Ia] | – | – | – | – | ± (50% inhibition at 500 ppm) | – | – | – | 100 ppm | 50 ppm | 100 ppm | – | > 500 ppm | 250 ppm | – | > 500 ppm | ± (50% inhibition at 500 ppm) | – | – | –
Cl/C=C\C[N+]12CN3CN(CN(C3)C1)C2 [Ib] | – | – | – | – | .-+. (>90% inhibition at 500 ppm) | – | – | – | 75 ppm | 50 ppm | 75 ppm | – | 500 ppm | 250 ppm | – | > 500 ppm | ± (50% inhibition at 500 ppm) | – | – | –
Cl/C=C\C[N+]12CN3CN(CN(C3)C1)C2 [Ic] | – | – | – | – | ± (50% inhibition at 500 ppm) | – | – | – | 100 ppm | 100 ppm | 100 ppm | – | 500 ppm | 250 ppm | – | > 500 ppm | – | 500 ppm | – | –
Cl/C=C\C[N+]12CN3CN(CN(C3)C1)C2 [Id] | – | – | – | – | .-+. (>90% inhibition at 500 ppm) | – | – | – | 250 ppm | 50 ppm | 250 ppm | – | 500 ppm | 250 ppm | – | > 500 ppm | – | 500 ppm | – | –
Cl/C=C\C[N+]12CN3CN(CN(C3)C1)C2 [Ie] | – | – | – | – | – | – | – | – | 75 ppm | 25 ppm | 250 ppm | – | > 500 ppm | 250 ppm | – | > 500 ppm | – | > 500 ppm | > 500 ppm | –
Cl/C=C\C[N+]12CN3CN(CN(C3)C1)C2 [If] | – | – | – | – | – | – | – | – | 250 ppm | 75 ppm | 250 ppm | – | 100 ppm | 250 ppm | – | 250 ppm | – | 500 ppm | 250 ppm | –
Cl/C=C\C[N+]12CN3CN(CN(C3)C1)C2 [Ig] | – | – | – | – | – | – | – | – | 50 ppm | 50 ppm | 250 ppm | – | – | 250 ppm | – | > 500 ppm | – | > 500 ppm | > 500 ppm | > 90%
Cl/C=C\C[N+]12CN3CN(CN(C3)C1)C2 [Ih] | – | – | – | – | – | – | – | – | 250 ppm | 75 ppm | 250 ppm | – | > 500 ppm | 250 ppm | – | > 500 ppm | – | > 500 ppm | > 500 ppm | –
Cl/C=C\C[N+]12CN3CN(CN(C3)C1)C2 [Ii] | – | – | – | – | – | – | – | – | 250 ppm | 50 ppm | 250 ppm | – | 100 ppm | 250 ppm | – | 500 ppm | – | 500 ppm | 250 ppm | –
Cl/C=C\C[N+]12CN3CN(CN(C3)C1)C2 [Ij] | – | – | – | – | – | – | – | – | 250 ppm | 75 ppm | 75 ppm | – | 250 ppm | 250 ppm | – | 500 ppm | – | 500 ppm | 500 ppm | –
